Legend:
[1] = system: HBV rtE218G mutant strain; assay: Drug sensitivity test: HepG2 cells transiently transfected with rtE218G mutagenic HBV plasmid, intracellular replication intermediates by Southern blotting; type: cell-based, hepatitis B virus
Description: (§1) After recovery, Human hepatoma cell strain HepG2 grew as the adherent monolayer cells in the DMEM medium with 10% fetal bovine serum at 37° C. in 5% CO2. Every 3 to 5 days, cells were passaged one generation in a ratio of 1:3. 24 hours before transfection, cells were inoculated in an appropriate amount (about 2×10^5 per well in a 6-well plate). Preferably, cell density was 40 to 60% for transfection (also, 80 to 90% as well). 1 hour before transfection, the medium was replaced with fresh complete culture medium (2 ml per well), and incubated at 37° C. in 5% CO2. To each well, for example, saline for injection was added to 2 μg of DNA to make a total volume of 100 μl, followed by mixing gently and standing at room temperature. Saline for injection was added to 2 μl of VigoFect to make a total volume of 100 μl, followed by mixing gently and standing at room temperature for 5 minutes. The diluted VigoFect was added to the diluted DNA solution dropwise, mixed gently, followed by keeping the resultant working solution for transfection stand at room temperature for 15 minutes. The transfection working solution was mixed gently and 2 ml of medium was added thereto dropwise, mixed gently and then incubated at 37° C. in 5% CO2. 2 days after transfection, the medium was replaced and ADV were added thereto with the final concentrations of 0, 0.01, 0.1, 1, 5, 10 and 20 μM. […]

HBV wild strain = assay: Drug sensitivity test: HepG2 cells transiently transfected with wild-type HBV plasmid, intracellular replication intermediates by Southern blotting; type: cell-based; details: Hepatitis B virus, 168 h, HBV replication intermediates in cytoplasm, Southern blotting gray values, treated 7 days, read-out: half maximal inhibitory concentration (IC50) for the wild strain
Description: as §1

[2] = system: rtL180M +M204V and rtN236T; details: cited from earlier work

Structure (SMILES): Nc1ncnc2c1ncn2CCOCP(=O)(O)O [adefovir]
- IC50 ([1]; Hepatitis B virus, 168 h, HepG2 cells, HBV replication intermediates in cytoplasm, Southern blotting gray values, treated 7 days, read-out: half maximal inhibitory concentration (IC50) for the rtE218G mutant strain): 9.3 µM
- IC50 of rtE218G mutant strain relative to that of the wild strain ([1]; ratio mutant IC50 / wild IC50): 5.5 times
- IC50 (HBV wild strain): 1.7 µM
- decrease of sensitivity of combined three mutations compared with rtN236T single mutation [2]: 2 folds

— patent publication US20120141977A1, “HEPATITIS B VIRUS MUTATION STRAIN WITH RESISTANCE TO ADEFOVIR DIPIVOXIL AND THE USES THEREOF” (priority 2009, published 2012)
